Laboratory results from patent US11160489B2, “Wireless optofluidic systems for programmable in vivo pharmacology and optogenetics” (THE BOARD OF TRUSTEES OF THE UNIVERSITY OF ILLINOIS, priority 2015, dated 2021).
“Also recorded” adds a separate entry of the source.

Target: T1, μ-opioid receptor (MOPR) (Mus musculus, UniProt P42866)
T1 construct: from tissue; host or cells: ventral tegmental area of living wild-type C57Bl6 mice (in vivo)
Experiment: Contraversive rotation/locomotor testing assay after wireless intra-VTA infusion
Assay type: in vivo
Settings: 200 pmol, wireless unilateral intra-VTA infusion, within-subject vs ACSF vehicle, wild-type mice, n=7
Excerpt: As a proof-of-principle within-subject in vivo pharmacology experiment, two chambers of each device were loaded with different pharmacological agents; one with the synthetic opioid peptide and MOPR agonist, [D-Ala^2, N-MePhe^4, Gly-ol]-enkephalin (DAMGO, 200 pmol, Tocris), and one with artificial cerebral spinal fluid (ACSF) as a vehicle control. In a counter-balanced design, either the DAMGO or vehicle was wirelessly delivered into the VTA of freely behaving animals over a distance of ˜1 m away from the animal (FIGS. 88, A and B).
After the mice were acclimatized to the holding facility for seven to nine days, they were anaesthetized in an induction chamber (4% Isolflurane) and placed in a stereotaxic frame (Kopf Instruments, Model 1900) where they were maintained at 1-2% isoflurane. […] For the DAMGO-induced rotation experiment, mice were implanted with the microfluidic device above the VTA (stereotaxic coordinates from bregma (mm): AP:-3.10, ML: +/−0.50, DV: −4.25). […] A standard electrode holder (KOPF 1770) was adapted to implant the microfluidic and optofluidic devices. […] The implants were secured using two bone screws (CMA, 743102) and affixed with dental cement (Lang Dental). C571Bl6 mice were allowed to recover for 5 days prior to behavioral testing.
C571Bl6 mice with microfluidic devices implanted above the VTA were placed in the center of the same arena used for the OFT and allowed to roam freely for 1 hr. Wireless infusion of vehicle or DAMGO was initiated and movements were video recorded and analyzed using Ethovision. Rotations were defined as full 360° revolutions in the path of movement.

T1 sequence (P42866 whole entry): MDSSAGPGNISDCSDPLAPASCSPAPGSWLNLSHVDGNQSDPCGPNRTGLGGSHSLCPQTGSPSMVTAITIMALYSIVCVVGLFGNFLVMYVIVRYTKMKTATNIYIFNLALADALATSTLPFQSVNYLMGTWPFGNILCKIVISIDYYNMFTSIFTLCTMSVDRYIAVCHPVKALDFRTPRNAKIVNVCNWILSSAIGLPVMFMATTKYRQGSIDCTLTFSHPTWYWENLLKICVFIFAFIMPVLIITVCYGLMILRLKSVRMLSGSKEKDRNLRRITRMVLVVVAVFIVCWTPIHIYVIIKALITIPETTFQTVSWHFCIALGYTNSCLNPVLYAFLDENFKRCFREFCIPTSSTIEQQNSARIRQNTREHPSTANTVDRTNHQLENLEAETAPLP

C[C@@H](NC(=O)[C@@H](N)Cc1ccc(O)cc1)C(=O)NCC(=O)N(C)[C@@H](Cc1ccccc1)C(=O)NCCO [DAMGO, [D-Ala^2, N-MePhe^4, Gly-ol]-enkephalin]
contraversive 360° rotations: significant increase; also recorded: stereotypical rotations contralateral to injection site
overall locomotor activity: significant increase; also recorded: robust increase in overall locomotor activity
